Source: patent US12544395B2, “Combination compositions comprising a beta-lactamase inhibitor and uses thereof” (priority 2018, dated 2026)

Experiments:
Format in all cases: cell-based
[1] = tested on: K. pneumoniae ESBL 8 #1; test: Broth microdilution MIC (strain enzymes: TEM-1, SHV-12); conditions: with inhibitor at 4 μg/mL
[2] = tested on: K. pneumoniae 11/23 LF#2; test: microbe, parasite or virus in culture; conditions: with inhibitor at 4 μg/mL
[3] = tested on: E. coli SI-PBLII; test: Broth microdilution MIC (strain enzymes: CTX-M2, TEM-1); conditions: with inhibitor at 4 μg/mL
[4] = tested on: E. coli SI-NO36; test: Broth microdilution MIC (strain enzymes: SHV-11, TEM-1); conditions: with inhibitor at 4 μg/mL
[5] = tested on: E. coli SI-V502; test: Broth microdilution MIC (strain enzymes: TEM-29, CTX-M15); conditions: with inhibitor at 4 μg/mL
[6] = tested on: E. coli 2150; test: Broth microdilution MIC (strain enzymes: SHV-3, TEM-1); conditions: with inhibitor at 4 μg/mL
[7] = tested on: E. coli 1924; test: Broth microdilution MIC (strain enzymes: TEM-12); conditions: with inhibitor at 4 μg/mL
[8] = tested on: K. pneumoniae 329633; test: Broth microdilution MIC (strain enzymes: SHV-5, TEM-1); conditions: with inhibitor at 4 μg/mL
[9] = tested on: ceftibuten-resistant Enterobacteriaceae expressing ESBL (n=20); test: Checkerboard broth microdilution MIC, BLI concentration impact
Experimental: Minimum inhibitory concentrations (MICs) were determined by broth microdilution method following CLSI guidelines. Tested strains were ceftibuten-resistant Enterobacteriaceae expressing ESBL (n=20), KPC (n=20), OXA-48 (n=20) and/or Class C (n=20) beta-lactamases. For each isolate, one microtiter plate was prepared and formatted as a checkerboard with the BLI (Compound 2 or clavulanic acid) titrated down the plate and ceftibuten titrated across the plate. Each agent was also tested alone. MICs were determined as the well with the lowest concentration of ceftibuten without visible growth at each concentration of BLI.

[10] = tested on: K. pneumoniae 319478; test: Broth microdilution MIC (strain enzymes: SHV-12, CTX-M3 and TEM-1); conditions: with inhibitor at 4 μg/mL
[11] = tested on: E. coli SI-M004; test: Broth microdilution MIC (strain enzymes: SHV-2, GES-12); conditions: with inhibitor at 4 μg/mL
[12] = tested on: E. coli 25922; test: Broth microdilution MIC (strain enzymes: None detected); conditions: with inhibitor at 4 μg/mL
[13] = tested on: K. oxytoca 169219; test: Broth microdilution MIC (strain enzymes: TEM-1, CTXM-15); conditions: with inhibitor at 4 μg/mL
[14] = tested on: E. coli ESBL 4; test: Broth microdilution MIC (strain enzymes: CTX-M15, TEM-1); conditions: with inhibitor at 4 μg/mL
[15] = tested on: E. coli ESBL 2; test: Broth microdilution MIC (strain enzymes: TEM-1); conditions: with inhibitor at 4 μg/mL
[16] = tested on: K. pneumoniae 153239; test: Broth microdilution MIC (strain enzymes: SHV-11, TEM-1); conditions: with inhibitor at 4 μg/mL
[17] = tested on: K. pneumoniae ESBL 8 #2; test: Broth microdilution MIC (strain enzymes: SHV-12, TEM-1); conditions: with inhibitor at 4 μg/mL
[18] = tested on: K. oxytoca 496 #2; test: Broth microdilution MIC (strain enzymes: SHV-105, TEM-1); conditions: with inhibitor at 4 μg/mL
[19] = tested on: E. coli BAS 1; test: Broth microdilution MIC (strain enzymes: none detected); conditions: with inhibitor at 4 μg/mL

## O=C(O)[C@H]1/C(=C/CO)O[C@@H]2CC(=O)N21 [Clavulanic acid, clavulanic acid, reference compound]
[1]
  MIC of cefalexin (LEX): 0.06 µg/mL
  MIC of cefdinir (CDR): 0.06 µg/mL
  MIC of cefixime (CFM): 0.06 µg/mL
  MIC of ceftibuten (CTB): 0.03 µg/mL
[2]
  MIC of cefalexin (LEX): 0.5 µg/mL
  MIC of cefdinir (CDR): 0.5 µg/mL
  MIC of cefixime (CFM): 2 µg/mL
  MIC of ceftibuten (CTB): 0.25 µg/mL
[3]
  MIC of cefalexin (LEX): 0.5 µg/mL
  MIC of cefdinir (CDR): 0.5 µg/mL
  MIC of cefixime (CFM): 1 µg/mL
  MIC of ceftibuten (CTB): 0.5 µg/mL
[4]
  MIC of cefalexin (LEX): 0.25 µg/mL
  MIC of cefdinir (CDR): 0.25 µg/mL
  MIC of cefixime (CFM): 0.5 µg/mL
  MIC of ceftibuten (CTB): 0.25 µg/mL
[5]
  MIC of cefalexin (LEX): 1 µg/mL
  MIC of cefdinir (CDR): 1 µg/mL
  MIC of cefixime (CFM): 1 µg/mL
  MIC of ceftibuten (CTB): 0.5 µg/mL
[6]
  MIC of cefalexin (LEX): 0.5 µg/mL
  MIC of cefdinir (CDR): 0.5 µg/mL
  MIC of cefixime (CFM): 1 µg/mL
  MIC of ceftibuten (CTB): 0.5 µg/mL
[7]
  MIC of cefalexin (LEX): 0.5 µg/mL
  MIC of cefdinir (CDR): 0.5 µg/mL
  MIC of cefixime (CFM): 1 µg/mL
  MIC of ceftibuten (CTB): 0.5 µg/mL
[8]
  MIC of cefalexin (LEX): 0.25 µg/mL
  MIC of cefdinir (CDR): 0.25 µg/mL
  MIC of cefixime (CFM): 0.03 µg/mL
  MIC of ceftibuten (CTB): 0.03 µg/mL
[9]; read-out: CTB MIC50
  MIC50: 0.5 µg/mL
[9]; read-out: CTB MIC90
  MIC90: 2 µg/mL
[10]
  MIC of cefalexin (LEX): 0.5 µg/mL
  MIC of cefdinir (CDR): 0.5 µg/mL
  MIC of cefixime (CFM): 0.5 µg/mL
  MIC of ceftibuten (CTB): 0.06 µg/mL
[11]
  MIC of cefalexin (LEX): 0.5 µg/mL
  MIC of cefdinir (CDR): 0.5 µg/mL
  MIC of cefixime (CFM): 1 µg/mL
  MIC of ceftibuten (CTB): 0.5 µg/mL
[12]
  MIC of cefalexin (LEX): 0.25 µg/mL
  MIC of cefdinir (CDR): 0.25 µg/mL
  MIC of cefixime (CFM): 0.5 µg/mL
  MIC of ceftibuten (CTB): 0.5 µg/mL
[13]
  MIC of cefalexin (LEX): 0.25 µg/mL
  MIC of cefdinir (CDR): 0.25 µg/mL
  MIC of cefixime (CFM): 0.125 µg/mL
  MIC of ceftibuten (CTB): 0.0149 µg/mL
[14]
  MIC of cefalexin (LEX): 1 µg/mL
  MIC of cefdinir (CDR): 1 µg/mL
  MIC of cefixime (CFM): 1 µg/mL
  MIC of ceftibuten (CTB): 0.5 µg/mL
[15]
  MIC of cefalexin (LEX): >32 µg/mL
  MIC of cefdinir (CDR): >32 µg/mL
  MIC of cefixime (CFM): 32 µg/mL
  MIC of ceftibuten (CTB): 4 µg/mL
[16]
  MIC of cefalexin (LEX): 0.25 µg/mL
  MIC of cefdinir (CDR): 0.25 µg/mL
  MIC of cefixime (CFM): 0.25 µg/mL
  MIC of ceftibuten (CTB): 0.06 µg/mL
[17]
  MIC of cefalexin (LEX): 0.125 µg/mL
  MIC of cefdinir (CDR): 0.125 µg/mL
  MIC of cefixime (CFM): 0.03 µg/mL
  MIC of ceftibuten (CTB): 0.06 µg/mL
[18]
  MIC of cefalexin (LEX): 0.06 µg/mL
  MIC of cefdinir (CDR): 0.06 µg/mL
  MIC of cefixime (CFM): 0.03 µg/mL
  MIC of ceftibuten (CTB): 0.125 µg/mL
[19]
  MIC of cefalexin (LEX): 16 µg/mL
  MIC of cefdinir (CDR): 16 µg/mL
  MIC of cefixime (CFM): >32 µg/mL
  MIC of ceftibuten (CTB): >32 µg/mL
